Reference: patent publication US6737383B1, “Herbicidal oxadiazolidines” (priority 1999, dated 2004)

What was measured:
bedstraw = assay: Test B pre/postemergence bedstraw; type: in vivo, Galium aparine
Procedure, shortened: (§1)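 Herbicidal effect was estimated by eye on a ten-point control scale after plants spent twelve to sixteen days in a greenhouse following soil or foliar treatment. Foliar sprays targeted plants at one to four leaves; all doses were formulated in a non-phytotoxic solvent with surfactant.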

blackgrass = assay: Test B pre/postemergence blackgrass; type: in vivo, Alopecurus myosuroides
Procedure, shortened: as §1

surinam grass = assay: Test B pre/postemergence surinam grass; type: in vivo, Brachiaria decumbens
Procedure, shortened: as §1

cocklebur = assay: Test B pre/postemergence cocklebur; type: in vivo, Xanthium strumarium
Procedure, shortened: as §1

corn = assay: Test B pre/postemergence corn; type: in vivo, Zea mays
Procedure, shortened: as §1

giant foxtail = assay: Test B pre/postemergence giant foxtail; type: in vivo, Setaria faberii
Procedure, shortened: as §1

morningglory = assay: Test B pre/postemergence morningglory; type: in vivo, Ipomoea hederacea
Procedure, shortened: as §1

pigweed = assay: Test B pre/postemergence pigweed; type: in vivo, Amaranthus retroflexus
Procedure, shortened: as §1

rape = assay: Test B pre/postemergence rape; type: in vivo, Brassica napus
Procedure, shortened: as §1

soybean = assay: Test B pre/postemergence soybean; type: in vivo, Glycine max
Procedure, shortened: as §1

sugar beet = assay: Test B pre/postemergence sugar beet; type: in vivo, Beta vulgaris
Procedure, shortened: as §1

velvetleaf = assay: Test B pre/postemergence velvetleaf; type: in vivo, Abutilon theophrasti
Procedure, shortened: as §1

wheat = assay: Test B pre/postemergence wheat; type: in vivo, Triticum aestivum
Procedure, shortened: as §1

wild oat = assay: Test B pre/postemergence wild oat; type: in vivo, Avena fatua
Procedure, shortened: as §1

rice = assay: Test B flood test rice; type: in vivo, Oryza sativa
Procedure, shortened: (§2)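 Flood test on plants grown to the 2-leaf stage; treated plants kept in greenhouse twelve to sixteen days, then visually rated against controls on a 0 (no effect) to 10 (complete control) scale.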

smallflower flatsedge = assay: Test B flood test smallflower flatsedge; type: in vivo, Cyperus difformis
Procedure, shortened: as §2

[1] = Preemergence, Rate 250 g/ha, scale of 0 to 10 where 0 is no effect and 10 is complete control
[2] = Preemergence, Rate 500 g/ha, scale of 0 to 10 where 0 is no effect and 10 is complete control
[3] = Rate 62 g/ha, Postemergence, scale of 0 to 10 where 0 is no effect and 10 is complete control
[4] = Rate 125 g/ha, Postemergence, scale 0 to 10
[5] = Rate 125 g/ha, Preemergence, scale of 0 to 10 where 0 is no effect and 10 is complete control
[6] = Rate 500 g/ha, Postemergence, scale 0 to 10, 0 no effect, 10 complete control
[7] = Preemergence, Rate 62 g/ha, scale of 0 to 10 where 0 is no effect and 10 is complete control
[8] = Rate 62 g/ha, headed Pre-emergence (flood test species), scale 0 to 10 (0 no effect, 10 complete control)
[9] = Rate 125 g/ha, Pre-emergence, flood test species, scale 0 to 10 where 0 is no effect and 10 is complete control
[10] = Rate 250 g/ha, Pre-emergence, flood-test species, scale 0 to 10, 0 is no effect, 10 is complete control
[11] = Rate 500 g/ha, Pre-emergence, flood test species, scale 0 to 10 (0 no effect, 10 complete control)

CC(C)N(C(=O)n1oc(=O)n(C2CC2)c1=O)c1ccc(Cl)cc1 [Compound 241]
Bedstraw plant response rating (bedstraw; [1]): 7 | Plant response rating, Bedstraw (bedstraw; [2]): 10 | Bedstraw plant response rating (bedstraw; [3]): 0 | Bedstraw plant response rating (bedstraw; [4]): 3 | Bedstraw plant response rating (bedstraw; [5]): 0 | Plant response rating (0 to 10; 0 is no effect, 10 is complete control), Bedstraw (bedstraw; Rate 250 g/ha, Postemergence): 7 | Bedstraw plant response rating (bedstraw; [6]): 7 | Blackgrass plant response rating (blackgrass; [7]): 6 | Blackgrass plant response rating (blackgrass; [1]): 7 | Plant response rating, Blackgrass (blackgrass; [2]): 10 | Blackgrass plant response rating (blackgrass; [3]): 3 | Blackgrass plant response rating (blackgrass; [4]): 7 | Blackgrass plant response rating (blackgrass; [5]): 6 | Plant response rating (0 to 10; 0 is no effect, 10 is complete control), Blackgrass (blackgrass; Rate 250 g/ha, Postemergence): 8 | Blackgrass plant response rating (blackgrass; [6]): 9 | B. signalgrass plant response rating (surinam grass; [7]): 0 | B. signalgrass plant response rating (surinam grass; [1]): 4 | Plant response rating, B. signalgrass (surinam grass; [2]): 4 | B. signalgrass plant response rating (surinam grass; [3]): 0 | B. signalgrass plant response rating (surinam grass; Rate 125 g/ha, Postemergence, scale 0 (no effect) to 10 (complete control)): 2 | B. signalgrass plant response rating (surinam grass; [5]): 2 | Plant response rating (0 to 10; 0 is no effect, 10 is complete control), B. signalgrass (surinam grass; Rate 250 g/ha, Postemergence): 4 | B. signalgrass plant response rating (surinam grass; [6]): 6 | Cocklebur plant response rating (cocklebur; [7]): 0 | Cocklebur plant response rating (cocklebur; [1]): 0 | Plant response rating, Cocklebur (cocklebur; [2]): 0 | Cocklebur plant response rating (cocklebur; [3]): 0 | Cocklebur plant response rating (cocklebur; [4]): 0 | Cocklebur plant response rating (cocklebur; [5]): 0 | Plant response rating (0 to 10; 0 is no effect, 10 is complete control), Cocklebur (cocklebur; Rate 250 g/ha, Postemergence): 1 | Cocklebur plant response rating (cocklebur; [6]): 1 | Corn plant response rating (corn; [7]): 0 | Corn plant response rating (corn; [1]): 0 | Plant response rating, Corn (corn; [2]): 5 | Corn plant response rating (corn; [3]): 0 | Corn plant response rating (corn; [4]): 0 | Corn plant response rating (corn; [5]): 0 | Plant response rating (0 to 10; 0 is no effect, 10 is complete control), Corn (corn; Rate 250 g/ha, Postemergence): 0 | Corn plant response rating (corn; [6]): 0 | Giant foxtail plant response rating (giant foxtail; [7]): 10 | Giant foxtail plant response rating (giant foxtail; [1]): 10 | Plant response rating, Giant foxtail (giant foxtail; [2]): 10 | Giant foxtail plant response rating (giant foxtail; [3]): 2 | Giant foxtail plant response rating (giant foxtail; [5]): 10 | Plant response rating (0 to 10; 0 is no effect, 10 is complete control), Giant foxtail (giant foxtail; Rate 250 g/ha, Postemergence): 6 | Giant foxtail plant response rating (giant foxtail; [6]): 8 | Morningglory plant response rating (morningglory; [7]): 0 | Morningglory plant response rating (morningglory; [1]): 3 | Plant response rating, Morningglory (morningglory; [2]): 5 | Morningglory plant response rating (morningglory; [3]): 3 | Morningglory plant response rating (morningglory; [5]): 0 | Plant response rating (0 to 10; 0 is no effect, 10 is complete control), Morningglory (morningglory; Rate 250 g/ha, Postemergence): 5 | Morningglory plant response rating (morningglory; [6]): 8 | Redroot pigweed plant response rating (pigweed; [7]): 0 | Redroot pigweed plant response rating (pigweed; [1]): 9 | Plant response rating, Redroot pigweed (pigweed; [2]): 10 | Redroot pigweed plant response rating (pigweed; [3]): 0 | Redroot pigweed plant response rating (pigweed; [5]): 0 | Plant response rating (0 to 10; 0 is no effect, 10 is complete control), Redroot pigweed (pigweed; Rate 250 g/ha, Postemergence): 0 | Redroot pigweed plant response rating (pigweed; [6]): 7 | Rape plant response rating (rape; [7]): 0 | Rape plant response rating (rape; [1]): 5 | Plant response rating, Rape (rape; [2]): 9 | Rape plant response rating (rape; [3]): 0 | Rape plant response rating (rape; [5]): 0 | Plant response rating (0 to 10; 0 is no effect, 10 is complete control), Rape (rape; Rate 250 g/ha, Postemergence): 2 | Rape plant response rating (rape; [6]): 4 | Soybean plant response rating (soybean; [7]): 0 | Soybean plant response rating (soybean; [1]): 0 | Plant response rating, Soybean (soybean; [2]): 4 | Soybean plant response rating (soybean; [3]): 1 | Soybean plant response rating (soybean; [5]): 0 | Soybean plant response rating (soybean; [6]): 4 | Sugarbeets plant response rating (sugar beet; [7]): 0 | Sugarbeets plant response rating (sugar beet; [1]): 6 | Plant response rating, Sugarbeets (sugar beet; [2]): 6 | Sugarbeets plant response rating (sugar beet; [3]): 0 | Sugarbeets plant response rating (sugar beet; [5]): 0 | Sugarbeets plant response rating (sugar beet; [6]): 5 | Velvetleaf plant response rating (velvetleaf; [7]): 2 | Velvetleaf plant response rating (velvetleaf; [1]): 5 | Plant response rating, Velvetleaf (velvetleaf; [2]): 7 | Velvetleaf plant response rating (velvetleaf; [3]): 2 | Velvetleaf plant response rating (velvetleaf; [5]): 5 | Velvetleaf plant response rating (velvetleaf; [6]): 1 | Wheat plant response rating (wheat; [7]): 0 | Wheat plant response rating (wheat; [1]): 3 | Plant response rating, Wheat (wheat; [2]): 5 | Wheat plant response rating (wheat; [3]): 0 | Wheat plant response rating (wheat; [5]): 0 | Wheat plant response rating (wheat; [6]): 8 | Wild oats plant response rating (wild oat; [7]): 3 | Wild oats plant response rating (wild oat; [1]): 8 | Plant response rating, Wild oats (wild oat; [2]): 8 | Wild oats plant response rating (wild oat; [3]): 0 | Wild oats plant response rating (wild oat; [5]): 5 | Wild oats plant response rating (wild oat; [6]): 2 | Rice plant response rating (rice; [8]): 0 | Rice plant response rating (rice; [9]): 0 | Rice plant response rating (rice; [10]): 0 | Rice plant response rating (rice; [11]): 0 | S. Flatsedge plant response rating (smallflower flatsedge; [8]): 0 | S. Flatsedge plant response rating (smallflower flatsedge; [9]): 0 | S. Flatsedge plant response rating (smallflower flatsedge; [10]): 0 | S. Flatsedge plant response rating (smallflower flatsedge; [11]): 0
